Columns and labels:
[1] = cited from earlier work
[2] = pH of one percent solution in distilled water; type: physicochemical

Row | pH of solution [2] | SMILES | Solubility in water [1]
1 | – | NCCC(O)(P(=O)(O)O)P(=O)(O)O [Pamidronic acid, (3 amino-1-hydroxypropylidene) bisphosphonic acid] | practically insoluble
2 | approximately 8.3 | NCCC(O)(P(=O)(O)O)P(=O)(O)O [pamidronate disodium] | –

Reference: US20030124151A1, “Pamidronate solution” (Mayne Pharma Pty Ltd., priority 2000, published 2003)
